According to patent US10577378B2, “EIF4A-inhibiting compounds and methods related thereto” (eFFECTOR Therapeutics, Inc., priority 2015, dated 2020):
pIC50: −log10 of the molar value.

These compounds were tested on MDA-MB-231 human breast cancer cells (assay: Cell proliferation assay (CellTiter-Glo, 72 hours treatment)). Conditions: Homo sapiens; MDA-MB-231 cells, 72 hours at 37° C., CellTiter-Glo; read-out: MDA-MB-231 cell proliferation assay (IC50).
Type: cell-based
Method: Human tumor cell lines were cultured in the appropriate media (DMEM and RPMI) supplemented with penicillin G (100 U/ml), streptomycin (100 μg/ml), 10% FBS in a humidified atmosphere of 5% CO2 maintained at 37° C. Exponentially growing cells were seeded at 2,500 cells/well in 96 well plates prior to drug treatment. The following day, cells were treated with either DMSO (vehicle control) or eIF4A inhibitors at the appropriate dose for 72 hours at 37° C. Following compound treatment, cell proliferation was assessed by CellTiter-Glo assay (Promega, Madison Wis.) according to the manufacturer's protocol. Dose-response curves were fitted by non-linear regression (sigmoidal dose response model) using KaleidaGraph (Synergy Software, Reading Pa.) and IC50 values were calculated.
To this end, IC50 values of less than 100 nM are labelled as “+++”, from 100 nM to 1000 nM are labelled as “++”, and greater than 1000 nM are labelled as “+” (NA means “not available”).

| Structure (SMILES) | pIC50 |
| --- | --- |
| COC(=O)[C@@H]1[C@@H](c2ccccc2)[C@]2(c3ccc(Br)cc3)Oc3cc(Cl)cnc3[C@]2(O)[C@H]1C#N (racemic) [49F, Rac-methyl (5aR,6S,7R,8R,8aR)-5a-(4-bromophenyl)-3-chloro-8-cyano-8a-hydroxy-6-phenyl-5a,7,8,8a-tetrahydro-6H-cyclopenta[4,5]furo[3,2-b]pyridine-7-carboxylate] | 6.00 to 7.00 |
| COC(=O)[C@@H]1[C@@H](c2ccccc2)[C@]2(c3ccc(C#N)cc3)Oc3cc(Cl)cnc3[C@]2(O)[C@H]1C#N (racemic) [50F, Rac-methyl (5aR,6S,7R,8R,8aR)-3-chloro-8-cyano-5a-(4-cyanophenyl)-8a-hydroxy-6-phenyl-5a,7,8,8a-tetrahydro-6H-cyclopenta[4,5]furo[3,2-b]pyridine-7-carboxylate] | 6.00 to 7.00 |
| CN(C)C(=O)[C@@H]1[C@@H](c2ccccc2)[C@]2(c3ccc(C#N)cc3)Oc3cc(Cl)cnc3[C@]2(O)[C@H]1C#N (racemic) [51F, Rac-(5aR,6S,7R,8R,8aR)-3-chloro-8-cyano-5a-(4-cyanophenyl)-8a-hydroxy-N,N-dimethyl-6-phenyl-5a,7,8,8a-tetrahydro-6H-cyclopenta[4,5]furo[3,2-b]pyridine-7-carboxamide] | 6.00 to 7.00 |
| N#Cc1ccc([C@@]23Oc4cc(Cl)cnc4[C@]2(O)[C@@H](C#N)[C@H](C(N)=O)[C@H]3c2ccccc2)cc1 (racemic) [52F, Rac-(5aR,6S,7R,8R,8aR)-3-chloro-8-cyano-5a-(4-cyanophenyl)-8a-hydroxy-6-phenyl-5a,7,8,8a-tetrahydro-6H-cyclopenta[4,5]furo[3,2-b]pyridine-7-carboxamide] | 6.00 to 7.00 |
| O=C1N[C@H]2[C@@H](O1)[C@@]1(O)c3ncc(Cl)cc3O[C@@]1(c1ccc(Br)cc1)[C@@H]2c1ccccc1 (racemic) [53F, Rac-(3aR,3bS,8aR,9R,9aR)-8a-(4-bromophenyl)-6-chloro-3b-hydroxy-9-phenyl-1,3a,3b,8a,9,9a-hexahydro-2H-oxazolo[4″,5″:4′,5′]cyclopenta[1′,2′:4,5]furo[3,2-b]pyridin-2-one] | > 7.00 |
| N#Cc1ccc([C@@]23Oc4cc(Cl)cnc4[C@]2(O)[C@@H]2OC(=O)N[C@@H]2[C@H]3c2ccccc2)cc1 (racemic) [54F, Rac-4-((3aR,3bS,8aR,9R,9aR)-6-chloro-3b-hydroxy-2-oxo-9-phenyl-1,2,3a,3b,9,9a-hexahydro-8aH-oxazolo[4″,5″:4′,5′]cyclopenta[1′,2′:4,5]furo[3,2-b]pyridin-8a-yl)benzonitrile] | 6.00 to 7.00 |
| OC[C@H]1[C@@H](O)[C@@]2(O)c3ncc(Cl)cc3O[C@@]2(c2ccc(Br)cc2)[C@@H]1c1ccccc1 (racemic) [55F, Rac-(5aR,6S,7S,8R,8aS)-5a-(4-bromophenyl)-3-chloro-7-(hydroxymethyl)-6-phenyl-5a,6,7,8-tetrahydro-8aH-cyclopenta[4,5]furo[3,2-b]pyridine-8,8a-diol] | 6.00 to 7.00 |
| N#Cc1ccc([C@@]23Oc4cc(Cl)cnc4[C@]2(O)[C@H](O)[C@H](CO)[C@H]3c2ccccc2)cc1 (racemic) [56F, Rac-4-((5aR,6S,7S,8R,8aS)-3-chloro-8,8a-dihydroxy-7-(hydroxymethyl)-6-phenyl-6,7,8,8a-tetrahydro-5aH-cyclopenta[4,5]furo[3,2-b]pyridin-5a-yl)benzonitrile] | < 6.00 |
| C[C@H]1[C@@H](O)[C@@]2(O)c3ncc(Cl)cc3O[C@@]2(c2ccc(Br)cc2)[C@@H]1c1ccccc1 (racemic) [57F, Rac-(5aR,6S,7R,8R,8aS)-5a-(4-bromophenyl)-3-chloro-7-methyl-6-phenyl-5a,6,7,8-tetrahydro-8aH-cyclopenta[4,5]furo[3,2-b]pyridine-8,8a-diol] | < 6.00 |
| COC(=O)C1(F)[C@@H](O)[C@@]2(O)c3ncc(Cl)cc3O[C@@]2(c2ccc(Br)cc2)[C@@H]1c1ccccc1 (mixture of isomers) [58F, Rac-methyl (5aR,6S,8S,8aS)-5a-(4-bromophenyl)-3-chloro-7-fluoro-8,8a-dihydroxy-6-phenyl-5a,7,8,8a-tetrahydro-6H-cyclopenta[4,5]furo[3,2-b]pyridine-7-carboxylate] | < 6.00 |
| COC(=O)C1(F)[C@@H](O)[C@@]2(O)c3ncc(Cl)cc3O[C@@]2(c2ccc(C#N)cc2)[C@@H]1c1ccccc1 (mixture of isomers) [59F, Rac-methyl (5aR,6S,8S,8aS)-3-chloro-5a-(4-cyanophenyl)-7-fluoro-8,8a-dihydroxy-6-phenyl-5a,7,8,8a-tetrahydro-6H-cyclopenta[4,5]furo[3,2-b]pyridine-7-carboxylate] | < 6.00 |
| O[C@]12c3ncc(Cl)cc3O[C@@]1(c1ccc(Br)cc1)[C@H](c1ccccc1)[C@H]1CO[C@H]12 (racemic) [60F, Rac-(2aS,3S,3aR,8bS,8cR)-3a-(4-bromophenyl)-6-chloro-3-phenyl-2a,3,3a,8c-tetrahydrooxeto[3″,2″:4′,5′]cyclopenta[1′,2′:4,5]furo[3,2-b]pyridin-8b(2H)-ol] | < 6.00 |
| N#Cc1ccc([C@@]23Oc4cc(Cl)cnc4[C@]2(O)[C@@H]2OC[C@@H]2[C@H]3c2ccccc2)cc1 (racemic) [61F, rac-4-((2aS,3S,3aR,8bS,8cR)-6-chloro-8b-hydroxy-3-phenyl-2a,3,8b,8c-tetrahydrooxeto[3″,2″:4′,5′]cyclopenta[1′,2′:4,5]furo[3,2-b]pyridin-3a(2H)-yl)benzonitrile] | < 6.00 |
| COC[C@H]1[C@@H](O)[C@@]2(O)c3ncc(Cl)cc3O[C@@]2(c2ccc(Br)cc2)[C@@H]1c1ccccc1 (racemic) [62F, rac-(5aR,6S,7S,8R,8aS)-5a-(4-bromophenyl)-3-chloro-7-(methoxymethyl)-6-phenyl-5a,6,7,8-tetrahydro-8aH-cyclopenta[4,5]furo[3,2-b]pyridine-8,8a-diol] | 6.00 to 7.00 |
| Clc1cnc2c(c1)O[C@@]1(c3ccc(Br)cc3)[C@H](c3ccccc3)C[C@@H]3O[C@@]231 (racemic) [63F, Rac-(1aS,3S,3aR,8bS)-3a-(4-bromophenyl)-6-chloro-3-phenyl-1a,2,3,3a-tetrahydro-oxireno[2″,3″:1′,5′]cyclopenta[1′,2′:4,5]furo[3,2-b]pyridine] | < 6.00 |
| COc1cncc2c1[C@]1(O)[C@H](O)[C@H](CN)[C@@H](c3ccccc3)[C@]1(c1ccc(C#N)cc1)O2 (racemic) [65F, Rac-4-((4bS,5R,6S,7S,7aR)-6-(aminomethyl)-4b,5-dihydroxy-4-methoxy-7-phenyl-5,6,7,7a-tetrahydro-4bH-cyclopenta[4,5]furo[2,3-c]pyridin-7a-yl)benzonitrile] | 6.00 to 7.00 |
| COc1cncc2c1[C@]1(O)[C@H](O)[C@H](CN3CCN(C)CC3)[C@@H](c3ccccc3)[C@]1(c1ccc(C#N)cc1)O2 (racemic) [68F, Rac-4-((4bS,5R,6S,7S,7aR)-4b,5-dihydroxy-4-methoxy-6-((4-methylpiperazin-1-yl)methyl)-7-phenyl-4b,5,6,7-tetrahydro-7aH-cyclopenta[4,5]furo[2,3-c]pyridin-7a-yl)benzonitrile] | 6.00 to 7.00 |
| CNC[C@H]1[C@@H](O)[C@@]2(O)c3c(OC)cncc3O[C@@]2(c2ccc(C#N)cc2)[C@@H]1c1ccccc1 (racemic) [69F, Rac-4-((4bS,5R,6S,7S,7aR)-4b,5-dihydroxy-4-methoxy-6-((methylamino)methyl)-7-phenyl-4b,5,6,7-tetrahydro-7aH-cyclopenta[4,5]furo[2,3-c]pyridin-7a-yl)benzonitrile] | 6.00 to 7.00 |
| CCNC[C@@H]1[C@@H](c2ccccc2)[C@]2(C3=CC=C(C#N)CC3)Oc3cncc(OC)c3[C@]2(O)[C@@H]1O (racemic) [70F, Rac-4-((4bS,5R,6S,7S,7aR)-6-((ethylamino)methyl)-4b,5-dihydroxy-4-methoxy-7-phenyl-4b,5,6,7-tetrahydro-7aH-cyclopenta[4,5]furo[2,3-c]pyridin-7a-yl)cyclohexa-1,3-diene-1-carbonitrile] | 6.00 to 7.00 |
| COc1cncc2c1[C@]1(O)[C@H](O)[C@H](CN3CCC3)[C@@H](c3ccccc3)[C@]1(c1ccc(C#N)cc1)O2 (racemic) [71F, Rac-4-((4bS,5R,6S,7S,7aR)-6-(azetidin-1-ylmethyl)-4b,5-dihydroxy-4-methoxy-7-phenyl-4b,5,6,7-tetrahydro-7aH-cyclopenta[4,5]furo[2,3-c]pyridin-7a-yl)benzonitrile] | > 7.00 |
| COc1cncc2c1[C@]1(O)[C@H](O)[C@H](CN3CCCC3)[C@@H](c3ccccc3)[C@]1(c1ccc(C#N)cc1)O2 (racemic) [72F, rac-4-((4bS,5R,6S,7S,7aR)-4b,5-dihydroxy-4-methoxy-7-phenyl-6-(pyrrolidin-1-ylmethyl)-4b,5,6,7-tetrahydro-7aH-cyclopenta[4,5]furo[2,3-c]pyridin-7a-yl)benzonitrile] | 6.00 to 7.00 |
| CCN(C)C[C@H]1[C@@H](O)[C@@]2(O)c3c(OC)cncc3O[C@@]2(c2ccc(C#N)cc2)[C@@H]1c1ccccc1 (racemic) [74F, Rac-4-((4bS,5R,6S,7S,7aR)-6-((ethyl(methyl)amino)methyl)-4b,5-dihydroxy-4-methoxy-7-phenyl-4b,5,6,7-tetrahydro-7aH-cyclopenta[4,5]furo[2,3-c]pyridin-7a-yl)benzonitrile] | > 7.00 |
| COc1cncc2c1[C@]1(O)[C@H](O)[C@H](CN(C)CCO)[C@@H](c3ccccc3)[C@]1(c1ccc(C#N)cc1)O2 (racemic) [75F, rac-4-((4bS,5R,6S,7S,7aR)-4b,5-dihydroxy-6-(((2-hydroxyethyl)(methyl)amino)methyl)-4-methoxy-7-phenyl-4b,5,6,7-tetrahydro-7aH-cyclopenta[4,5]furo[2,3-c]pyridin-7a-yl)benzonitrile] | 6.00 to 7.00 |
